Measured values as given in patent US10155754B2, “Substituted 2-imino-1,3-thiazolidin-4-ones as N-arachidonoylethanolamine cellular uptake inhibitors” (UNIVERSITAT BERN, priority 2014, dated 2018).

tested on: AEA cellular uptake (U937 cells); assay: [3H]-AEA cellular uptake inhibition in U937 cells; type: cell-based; conditions: Homo sapiens, U-937, U937 cells, final 100 nM AEA with 0.5 nM [3H]-AEA, 15 min at 37° C.; read-out: AEA uptake IC50
Method: [^3H]-AEA Cellular Uptake
Screening for AEA cellular uptake inhibition was performed in a semi-automated procedure: Pipetting and washing steps were performed by a Biomek3000 laboratory workstation. First, required amounts of U937 cells were centrifuged at 100×g for 5 min and resuspended in RPMI (37° C.) to a final concentration of 2×10^6 cells/mL. Then, 250 μL of cell suspension (0.5×10^6 cells per sample) were transferred into AquaSil™ silanized glass vials (Chromacol 1.1-MTV) in 96-well format. After addition of 5 μL vehicle (DMSO) or compounds the cells were incubated at 37° C. for 15 min. As positive controls OMDM-2 and UCM707 were used at 10 μM in each run. The ETI-T compounds were measured at up to 7 concentrations in triplicates from 100 pM-100 μM. After pre-incubation, a mixture of 0.5 nM [ethanolamine-1-^3H]-AEA, (60 Ci/mmol) and 99.5 nM of cold AEA (final 100 nM) was added and samples were incubated at 37° C. for another 15 min. The reaction was stopped by rapid filtration over UniFilter-96 GF/C filters (PerkinElmer) pre-soaked with PBS 0.25% BSA. Cells were washed three times with 100 μL ice-cold PBS buffer containing 1% fatty acid free BSA. After drying, 45 μL MicroScint 20 scintillation cocktail (PerkinElmer, Waltham, Mass., US) was added to the wells and the plate was sealed. Radioactivity was measured by liquid scintillation counting on a PerkinElmer Wallac Trilux MicroBeta 1450 during 2 min. Non-specific binding of [^3H]AEA (100 nM) to the glass vials was never higher than 10%. IC50 values were calculated by GraphPad® by non-linear regression using the built-in log(inhibitor) vs. response-variable slope (four parameters) function.

IC50 [nM]	Molecule
564	O=C1/C(=C/c2ccc3[nH]ccc3c2)S/C(=N\c2ccccc2)N1CCCc1ccccc1 [03_N_K, (2Z,5Z)-5-((1H-indol-5-yl)methylene)-2-(phenylimino)-3-(3-phenylpropyl)thiazolidin-4-one]
> 10000	CCCCCCCCCCCCN1C(=O)/C(=C/c2ccc(CO)cc2)S/C1=N\c1ccc(C)cc1 [04_A_V, (2Z,5Z)-5-(4-(hydroxymethyl)benzylidene)-2-(p-tolylimino)-3-dodecylthiazolidin-4-one]
15600	COCc1cccc(/C=C2\S/C(=N\CCc3ccccc3)N(c3ccccc3)C2=O)c1 [15_U_N, (2Z,5Z)-5-(3-(methoxymethyl)benzylidene)-2-(phenethylimino)-3-phenylthiazolidin-4-one]
> 10000	COCc1ccc(/C=C2\S/C(=N\c3ccccc3)N(c3ccccc3)C2=O)cc1 [compound 34, (2Z,5Z)-5-(4-(methoxymethyl)benzylidene)-3-phenyl-2-(phenylimino)thiazolidin-4-one]
663	O=C1/C(=C/c2ccc3c(c2)OCCO3)S/C(=N\c2ccc(F)cc2)N1c1ccc(Cl)cc1 [24_B_L, (2Z,5Z)-2-(4-fluorophenylimino)-3-(4-chlorophenyl)-5-((2,3-dihydrobenzo[b][1,4]dioxin-6-yl)methylene)thiazolidin-4-one]
1120	O=C1/C(=C/c2ccccc2)S/C(=N\c2ccccc2)N1CCCc1ccccc1 [23_N_K, (2Z,5Z)-5-benzylidene-2-(phenylimino)-3-(3-phenylpropyl)thiazolidin-4-one]
1430	O=C1/C(=C/c2ccc3c(c2)OCCO3)S/C(=N\Cc2cccnc2)N1c1ccccc1 [24_S_N, (2Z,5Z)-2-((pyridin-3-yl)methylimino)-5-((2,3-dihydrobenzo[b][1,4]dioxin-7-yl)methylene)-3-phenylthiazolidin-4-one]
753	CCCCN1C(=O)/C(=C/c2ccccc2)S/C1=N\Cc1ccccc1 [23_C_G, (2Z,5Z)-5-benzylidene-2-(benzylimino)-3-butylthiazolidin-4-one]
878	O=C1/C(=C/c2ccc3[nH]cnc3c2)S/C(=N\Cc2cccnc2)N1c1ccccc1 [04_S_N, (2Z,5Z)-2-((pyridin-3-yl)methylimino)-5-((1H-benzo[d]imidazol-5-yl)methylene)-3-phenylthiazolidin-4-one]
616	Cc1ccc(/N=C2\S/C(=C\c3ccc4c(c3)OCCO4)C(=O)N2c2ccc(Cl)cc2)cc1 [24_A_L, (2Z,5Z)-2-(p-tolylimino)-3-(4-chlorophenyl)-5-((2,3-dihydrobenzo[b][1,4]dioxin-6-yl)methylene)thiazolidin-4-one]
657	O=C1/C(=C/c2ccc(CO)cc2)S/C(=N\c2ccccc2)N1Cc1ccccc1 [22_N_C, (2Z,5Z)-5-(4-(hydroxymethyl)benzylidene)-3-benzyl-2-(phenylimino)thiazolidin-4-one]
1660	O=C1/C(=C/c2ccc(CO)cc2)S/C(=N\Cc2ccccc2)N1c1ccccc1 [22_C_N, (2Z,5Z)-5-(4-(hydroxymethyl)benzylidene)-2-(benzylimino)-3-phenylthiazolidin-4-one]
1060	CCCCN1C(=O)/C(=C/c2ccc3[nH]cnc3c2)S/C1=N\Cc1ccccc1 [04_C_G, (2Z,5Z)-5-((1H-benzo[d]imidazol-5-yl)methylene)-2-(benzylimino)-3-butylthiazolidin-4-one]
1590	Cc1ccc(/N=C2\S/C(=C\c3ccc4[nH]cnc4c3)C(=O)N2c2ccccc2)nc1 [04_D_N, (2Z,5Z)-5-((1H-benzo[d]imidazol-5-yl)methylene)-2-(5-methylpyridin-2-ylimino)-3-phenylthiazolidin-4-one]
176	Cc1ccc(N2C(=O)/C(=C/c3ccc4c(c3)OCCO4)S/C2=N\c2ccc(F)cc2)cc1 [24_B_A, (2Z,5Z)-2-(4-fluorophenylimino)-5-((2,3-dihydrobenzo[b][1,4]dioxin-6-yl)methylene)-3-p-tolylthiazolidin-4-one]
729	O=C1/C(=C/c2ccc(CO)cc2)S/C(=N\c2ccccc2)N1c1ccccc1 [compound 22, (2Z,5Z)-5-(4-(hydroxymethyl)benzylidene)-3-phenyl-2-(phenylimino)thiazolidin-4-one]
556	O=C1/C(=C/c2ccccc2)S/C(=N\Cc2ccccc2Cl)N1c1ccccc1 [23_T_N, (2Z,5Z)-2-(2-chlorobenzylimino)-5-benzylidene-3-phenylthiazolidin-4-one]
727	O=C1/C(=C/c2ccc3[nH]cnc3c2)S/C(=N\c2ccccc2)N1CCCc1ccccc1 [04_N_K, (2Z,5Z)-5-((1H-benzo[d]imidazol-5-yl)methylene)-2-(phenylimino)-3-(3-phenylpropyl)thiazolidin-4-one]
727	O=C1/C(=C/c2ccc3[nH]ccc3c2)S/C(=N\Cc2ccccc2)N1CCc1ccccc1 [03_C_O, (2Z,5Z)-5-((1H-indol-5-yl)methylene)-2-(benzylimino)-3-phenethylthiazolidin-4-one]
509	O=C1/C(=C/c2ccc3[nH]ccc3c2)S/C(=N\CCc2ccccc2)N1c1ccccc1 [03_U_N, (2Z,5Z)-5-((1H-indol-5-yl)methylene)-2-(phenethylimino)-3-phenylthiazolidin-4-one]

same assay, conditions: Homo sapiens, U-937, U937 cells, final 100 nM AEA with 0.5 nM [3H]-AEA, 15 min at 37° C.; read-out: AEA uptake inhibition IC50

IC50 [nM]	Molecule
170	O=C1/C(=C/c2ccc3c(c2)OCCO3)S/C(=N\Cc2ccccc2)N1c1ccccc1 [drawing 133]
657	O=C1/C(=C/c2ccc(CO)cc2)S/C(=N\c2ccccc2)N1Cc1ccccc1 [drawing 156]
1000	COCc1cccc(/C=C2\S/C(=N\c3ccccc3)N(c3ccccc3)C2=O)c1 [drawing 117]
4630	O=C1/C(=C/c2ccc3sccc3c2)S/C(=N\c2ccccc2)N1c1ccccc1
2800	COc1ccc(/C=C2\S/C(=N\c3ccc(C)cn3)N(c3ccccc3)C2=O)cc1
111	Cc1ccc(/N=C2\S/C(=C\c3ccc(CO)cc3)C(=O)N2c2ccccc2)cc1 [drawing 141]
135	COc1ccc(/N=C2\S/C(=C\c3ccc(CO)cc3)C(=O)N2c2ccccc2)cc1 [drawing 140]
1070	COc1ccc(/N=C2\S/C(=C\c3ccc4[nH]ccc4c3)C(=O)N2c2ccccc2)cc1 [drawing 150]
6700	COc1cncc(/C=C2\S/C(=N\c3ccccc3)N(c3ccccc3)C2=O)c1
1600	COc1ccnc(/C=C2\S/C(=N\c3ccccc3)N(c3ccccc3)C2=O)c1
2120	COc1ccc(/C=C2\S/C(=N\c3ccccc3)N(c3ccccc3)C2=O)cc1
3360	O=C1/C(=C/c2ccc3c(c2)OCO3)S/C(=N\c2ccccc2)N1c1ccccc1
610	O=C1/C(=C/c2ccc3[nH]ccc3c2)S/C(=N\c2ccccc2)N1Cc1ccccc1
677	CCCCN1C(=O)/C(=C/c2ccc3[nH]ccc3c2)S/C1=N\c1ccccc1
1310	O=C1/C(=C/c2ccc(CO)cc2)S/C(=N\c2ccccc2)N1Cc1ccco1 [drawing 157]
107	Cc1ccc(/N=C2\S/C(=C\c3ccc4[nH]cnc4c3)C(=O)N2c2ccccc2)cc1 [drawing 144]
1810	O=C1/C(=C/c2ccccc2)S/C(=N\c2ccccc2)N1Cc1ccco1
557	CCCCN1C(=O)/C(=C/c2ccc3[nH]cnc3c2)S/C1=N\c1ccccc1 [drawing 154]
11800	O=C1/C(=C/c2ccc3scnc3c2)S/C(=N\c2ccccc2)N1c1ccccc1
1450	Cc1ccc(/N=C2\S/C(=C\c3ccc(CO)cc3)C(=O)N2c2ccccc2)nc1 [drawing 143]
15600	COc1ccc(/C=C2\S/C(=N\c3ccccc3)N(c3ccccc3)C2=O)cn1
2730	Cc1ccc(/N=C2\S/C(=C\c3ccc4[nH]ccc4c3)C(=O)N2c2ccccc2)nc1
817	O=C1/C(=C/c2ccc3c(c2)OCCO3)S/C(=N\c2ccccc2)N1c1ccccc1 [drawing 119]
6920	C/N=C1\S/C(=C\c2ccc(OC)cc2)C(=O)N1c1ccccc1

same assay, conditions: U937 cells, final 100 nM AEA with 0.5 nM [3H]-AEA, 15 min at 37° C.; read-out: AEA uptake IC50

IC50 [nM]	Molecule
1430	O=C1/C(=C/c2ccc(CO)cc2)S/C(=N\Cc2ccccc2)N1CCCc1ccccc1 [22_C_K, (2Z,5Z)-5-(4-(hydroxymethyl)benzylidene)-2-(benzylimino)-3-(3-phenylpropyl)thiazolidin-4-]
527	Cc1ccc(N2C(=O)/C(=C/c3ccc4[nH]cnc4c3)S/C2=N\c2ccc(F)cc2)cc1 [04_B_A, (2Z,5Z)-5-((1H-benzo[d]imidazol-5-yl)methylene)-2-(4-fluorophenylimino)-3-p-tolylthiazolidin-4-one]
677	(2Z,5Z)-5-((1H-benzo[d]imidazol-5-yl)methylene)-3-butyl-2-(phenylimino)thiazolidin-4- [03_N_G]
1690	COCc1cccc(/C=C2\S/C(=N\Cc3ccccc3)N(c3ccccc3)C2=O)c1 [15_C_N, (2Z,5Z)-5-(3-(methoxymethyl)benzylidene)-2-(benzylimino)-3-phenylthiazolidin-4-]
